Results reported in PMC2883612 (Journal of nuclear medicine : official publication, Society …, 2009).

Columns and labels:
[1] = Pharmacologic effects and safety tests in human subjects after PET; format: in vivo
[2] = Plasma metabolite analysis and plasma input function; format: in vivo; conditions: human; for metabolites in plasma radioactivity: 30 min after injection; for plasma clearance time constant: monoexponential fitting from 20 to 60 min
[3] = cited from earlier work
[4] = tested on: TSPO; conditions: rat model of neurodegeneration; cited from earlier work
[5] = tested on: TSPO; conditions: in vivo; cited from earlier work
[6] = molecular target: TSPO (Homo sapiens, UniProt P30536); experiment: Brain PET with arterial input, compartmental modeling; conditions: 1-tissue model, mean ± SD
Sequence of TSPO (Homo sapiens, UniProt P30536) (P30536 whole entry): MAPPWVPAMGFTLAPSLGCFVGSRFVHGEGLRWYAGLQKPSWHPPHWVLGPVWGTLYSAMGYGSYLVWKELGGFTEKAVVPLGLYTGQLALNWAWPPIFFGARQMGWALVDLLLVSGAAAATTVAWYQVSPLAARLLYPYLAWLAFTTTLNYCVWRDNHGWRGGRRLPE

## CCN(CC)C(=O)Cc1c(-c2ccc(OC)cc2)nn2c(C)cc(C)nc12 [^11C-DPA-713, ^11C-N,N-diethyl-2-[2-(4-methoxyphenyl)-5,7-dimethyl-pyrazolo[1,5-a]pyrimidin-3-yl]-acetamide]
[1]; healthy human subjects
  blood tests before and after the scan: no abnormalities or interval changes
  side effects after the PET scans: No side effects were reported
[1]; healthy human subjects, intravenous bolus
  pharmacologic effects: No pharmacologic effects were noted
[1]; within 1 wk before and after injection
  12-lead ECGs: no abnormalities or interval changes
[2]
  metabolites in plasma radioactivity: 20%
  plasma clearance time constant: 42 min
[3]
  logP: 2.4
[4]
  specificity in discriminating between normal and lesioned brain, vs ^11C-R-PK11195: greater specificity

## CCC(C)N(C)C(=O)c1cc2ccccc2c(-c2ccccc2Cl)n1 (stereo not shown) [^11C-R-PK11195]
[2]
  metabolites in plasma radioactivity: 40%
  plasma clearance time constant: 37 min
[5]
  blocking effect on ^11C-DPA-713 brain uptake: potent blockade of brain uptake
[6]; Caudate
  K1 value: 0.020 ± 0.012 (24.9)
  VT value: 0.25 ± 0.09 (23.1)
[6]; Cerebellar cortex
  K1 value: 0.025 ± 0.016 (12.5)
  VT value: 0.32 ± 0.08 (11.9)
[6]; Frontal
  K1 value: 0.023 ± 0.013 (14.6)
  VT value: 0.33 ± 0.10 (13.9)
[6]; Pons
  K1 value: 0.019 ± 0.016 (23.1)
  VT value: 0.42 ± 0.13 (33.3)
[6]; Putamen
  K1 value: 0.026 ± 0.015 (10.3)
  VT value: 0.34 ± 0.06 (9.5)
[6]; Temporal
  K1 value: 0.016 ± 0.011 (22.0)
  VT value: 0.40 ± 0.08 (29.4)
[6]; Thalamus
  K1 value: 0.025 ± 0.013 (12.0)
  VT value: 0.42 ± 0.07 (11.9)
